Measured values: patent US7687079B2, “Methods of treating ileus” (priority 2002, dated 2010)

Key:
IL-10 mRNA = test: Example 3 IL-10 mRNA by SYBR green real time RT-PCR; assay type: in vivo, mouse; conditions: IM-CO mice
Experimental: Ileus was induced in mice by gentle manipulation of the small intestine. An incision was made to expose the abdominal cavity of the mouse, and bowel manipulation was performed by gentle poking and prodding of the small intestine (see, e.g., Schwarz et al., Gastroenterology 121(6):1354-1357 (2001)). […] Mice were exposed to CO by inhalation (250 and 500 ppm) for 1 hour immediately prior to intestinal manipulation and during the entire 24-hour recovery period. Intestinal contractility was assessed in vitro by measuring circular muscle strip contractions in response to bethanechol (0.3-300 μM) and in vivo by determining intestinal transit from the distribution of orally-fed, fluorescein-labeled dextran and calculating geometric center as described in Example 1 above. HO-1 and IL-10 mRNA expression were determined by SYBR green real time RT-PCR from extracts of muscularis extemae, as described in Example 1 above. Release of nitric oxide (NO), a potent inhibitor of smooth muscle contractility, was estimated by measuring serum total nitrite, also described in Example 1 above.

IL-6 mRNA = IL-6 mRNA expression in muscularis externae of intestinal grafts; assay type: in vivo, rat
Experimental: To investigate the sequential analysis of cytokine mRNA expression in the mucosa and muscularis, RNase protection assay was performed with the Riboquant™ kit (Pharmingen) according to the protocol of the manufacturer. […] Quantification of radioactivity of mRNA bands was performed with NIH Image, normalized to GAPDH, and expressed as a ratio of cytokine /GAPDH (n=3-4).
The effects of inhalation of CO on transplant-induced pro-inflammatory and anti-inflammatory gene expression was assessed in muscularis extracts by RT-PCR. […] Equal aliquots (5 μg) of total RNA from each sample were quantified by spectrophotometry (wavelength […]) and aliquoted at a concentration of 40 ng/μl. Peak mRNA expression was quantified in duplicate by SYBR Green two-step, real-time RT-PCR. […] Real-time PCR data were plotted as the ΔRn, fluorescence signal versus the cycle number. […] Quantification of mRNA expression was normalized to GAPDH and calculated relative to control using the comparative CT method (Schmittgen et al., J. Biochem. Biophys. Methods 46(1-2):69-8 (2000)). […]

iNOS mRNA = iNOS mRNA expression in muscularis of transplanted grafts (real time RT-PCR); assay type: in vivo, rat; conditions: CO-treated SITx rats, 4 hours after reperfusion; p=0.060
Experimental: The effects of inhalation of CO on transplant-induced pro-inflammatory and anti-inflammatory gene expression was assessed in muscularis extracts by RT-PCR. Muscularis extemae was collected from normal intestine and transplanted grafts 4 hours postoperatively and snap frozen in liquid nitrogen. This time point falls within the range of maximum inflammatory mediator expression that occurs between 3 and 6 hours following abdominal incision. Total RNA extraction was performed using the guanidium-thiocyanate phenol-chloroform extraction method as described previously (Eskandari et al., Am. J. Clin. Pathol. 75(3):367-370 (1997)). RNA pellets were resuspended in RNA-secure resuspension solution (Ambion Inc., Austin, Tex.), followed by removal of potentially contaminating DNA by treatment with DNase I (DNA-Free Kit, Ambion Inc., Austin, Tex.). Equal aliquots (5 μg) of total RNA from each sample were quantified by spectrophotometry (wavelength […]) and aliquoted at a concentration of 40 ng/μl. Peak mRNA expression was quantified in duplicate by SYBR Green two-step, real-time RT-PCR. […] Real-time PCR data were plotted as the ΔRn, fluorescence signal versus the cycle number. […] Quantification of mRNA expression was normalized to GAPDH and calculated relative to control using the comparative CT method (Schmittgen et al., J. Biochem. Biophys. Methods 46(1-2):69-8 (2000)). […]

With [C-]#[O+] [CO, carbon monoxide] the “IL-10 expression versus controls” value (IL-10 mRNA) was 35 fold, the “IL-6 mRNA” value (IL-6 mRNA; SITx + CO, Table 2) was 22.3 ± 1.8 % GAPDH and the “reduction of mean relative IL-6 mRNA expression” value (IL-6 mRNA; SITx recipients treated with CO vs SITx, 4 hours after reperfusion, p=0.084) was 40%. The “reduction of mean relative iNOS mRNA expression” value (iNOS mRNA) was “approximately 50%”.
